According to ChEMBL document CHEMBL4680269, “N-benzylpiperidinol derivatives as novel USP7 inhibitors: Structure-activity relationships and X-ray crystallographic studies” (Eur J Med Chem, 2020):
Activity calls are given as the source filed them. The calls are words filed in the database; no cut-off is given here.

Each compound was assayed against T1, Ubiquitin carboxyl-terminal hydrolase 7 (Homo sapiens, UniProt Q93009) (assay: Inhibition of recombinant human N-terminal His6-tagged full length USP7 expressed in baculovirus infected Sf21 cells using monoubiquitinated ubiquitin-rhodamine as substrate incubated for 30 mins followed by Ub-Rho addition and measured after 2 hrs by spectrophotometry). Settings: not given.
Target sequence in this assay (Q93009 whole entry): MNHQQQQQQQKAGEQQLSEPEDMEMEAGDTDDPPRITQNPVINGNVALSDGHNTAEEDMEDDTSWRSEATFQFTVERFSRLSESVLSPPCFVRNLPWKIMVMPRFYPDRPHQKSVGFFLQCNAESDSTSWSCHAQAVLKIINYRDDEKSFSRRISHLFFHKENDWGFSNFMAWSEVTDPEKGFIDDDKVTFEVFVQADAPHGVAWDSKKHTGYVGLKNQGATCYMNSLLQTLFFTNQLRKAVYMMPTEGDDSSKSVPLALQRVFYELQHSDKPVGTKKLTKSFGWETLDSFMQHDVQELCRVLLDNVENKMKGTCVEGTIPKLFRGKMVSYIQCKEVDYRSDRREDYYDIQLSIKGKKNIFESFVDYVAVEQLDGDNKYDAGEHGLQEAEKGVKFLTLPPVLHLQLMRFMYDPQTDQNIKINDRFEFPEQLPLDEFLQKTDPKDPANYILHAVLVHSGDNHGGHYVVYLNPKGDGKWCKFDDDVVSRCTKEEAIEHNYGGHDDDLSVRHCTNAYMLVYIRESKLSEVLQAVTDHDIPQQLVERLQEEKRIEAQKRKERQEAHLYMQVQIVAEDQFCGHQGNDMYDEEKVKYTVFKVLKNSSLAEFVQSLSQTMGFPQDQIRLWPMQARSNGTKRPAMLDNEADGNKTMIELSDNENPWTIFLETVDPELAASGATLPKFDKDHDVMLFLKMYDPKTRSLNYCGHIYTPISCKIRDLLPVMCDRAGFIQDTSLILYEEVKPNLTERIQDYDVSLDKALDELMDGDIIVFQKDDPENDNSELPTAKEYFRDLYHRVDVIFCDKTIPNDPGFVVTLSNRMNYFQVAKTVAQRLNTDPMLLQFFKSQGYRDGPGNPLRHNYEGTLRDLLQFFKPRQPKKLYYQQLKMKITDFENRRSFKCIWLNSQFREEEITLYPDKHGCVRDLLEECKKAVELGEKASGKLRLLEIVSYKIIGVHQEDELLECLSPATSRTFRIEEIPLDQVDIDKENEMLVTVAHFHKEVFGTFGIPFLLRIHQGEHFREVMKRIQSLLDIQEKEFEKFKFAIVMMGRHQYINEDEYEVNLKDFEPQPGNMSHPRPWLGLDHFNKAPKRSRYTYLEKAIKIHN

| SMILES | IC50 [µM] |
| --- | --- |
| O=c1c2cnn(-c3ccc(F)cc3)c2ncn1CC1(O)CCN(Cc2ccc(Br)cc2Cl)CC1 | 1.9 |
| N#Cc1ccccc1CN1CCC(O)(Cn2cnc3c(cnn3-c3ccc(F)cc3)c2=O)CC1 | 8.1 |
| COC(=O)c1ccc(CN2CCC(O)(Cn3cnc4c(Br)n(C)nc4c3=O)CC2)c(Cl)c1 | 0.157 |
| O=c1c2cnn(-c3ccc(F)cc3)c2ncn1CC1(O)CCN(Cc2ccc(Cl)cc2)CC1 | 8 |
| COC(=O)c1ccc(CN2CCC(O)(Cn3cnc4c(cnn4-c4ccc(F)cc4)c3=O)CC2)cc1 | 4.5 |
| O=c1c2cnn(-c3ccc(F)cc3)c2ncn1CC1(O)CCN(Cc2ccc(Cl)cc2Cl)CC1 | 3.3 |
| O=c1c2cnn(-c3ccc(F)cc3)c2ncn1CC1(O)CCN(Cc2ccccc2Cl)CC1 | 3.4 |
| O=c1c2cnn(-c3ccc(F)cc3)c2ncn1CC1(O)CCN(Cc2ccccc2F)CC1 | 9.8 |
| COC(=O)c1ccc(CN2CCC(O)(Cn3cnc4c(cnn4-c4ccc(F)cc4)c3=O)CC2)c(F)c1 | 0.8 |
| O=c1c2cnn(-c3ccc(F)cc3)c2ncn1CC1(O)CCN(Cc2ccc([N+](=O)[O-])cc2)CC1 | 9 |
| O=c1c2cnn(-c3ccc(F)cc3)c2ncn1CC1(O)CCN(Cc2ccc(F)cc2Cl)CC1 | 1.6 |
| COC(=O)c1ccc(CN2CCC(O)(Cn3cnc4c(-c5ccc(CNC(C)=O)cc5)n(C)nc4c3=O)CC2)c(Cl)c1 | 0.121 |
| COC(=O)c1ccc(CN2CCC(O)(Cn3cnc4c(-c5ccc(CNC(=O)OC(C)(C)C)cc5)n(C)nc4c3=O)CC2)c(Cl)c1 | 0.209 |
| O=c1c2cnn(-c3ccc(F)cc3)c2ncn1CC1(O)CCN(Cc2ccc(Br)cc2)CC1 | 6.7 |
| O=c1c2cnn(-c3ccc(F)cc3)c2ncn1CC1(O)CCN(Cc2ccccc2Br)CC1 | 3.1 |
| COC(=O)c1ccc(CN2CCC(O)(Cn3cnc4c(cnn4-c4ccc(F)cc4)c3=O)CC2)c(Br)c1 | 0.9 |
| N#Cc1cc(Cl)ccc1CN1CCC(O)(Cn2cnc3c(cnn3-c3ccc(F)cc3)c2=O)CC1 | 11.4 |
| COC(=O)c1ccc(CN2CCC(O)(Cn3cnc4c(cnn4-c4ccc(F)cc4)c3=O)CC2)c(Cl)c1 | 0.8 |

Each compound was assayed against T1, Ubiquitin carboxyl-terminal hydrolase 7 (assay: Inhibition of recombinant human N-terminal His6-tagged full length USP7 expressed in baculovirus infected Sf21 cells at 10 uM using monoubiquitinated ubiquitin-rhodamine as substrate incubated for 30 mins followed by Ub-Rho addition and measured after 2 hrs by spectrophotometry relative to control). Settings: time 2.5 hrs.
Target sequence in this assay (Q93009 whole entry, looked up): as the sequence (Q93009 whole entry) above

| SMILES | inhibition |
| --- | --- |
| O=c1c2cnn(-c3ccc(F)cc3)c2ncn1CC1(O)CCN(c2ncccn2)CC1 | inactive |
| CCOC(=O)c1csc(N2CCC(O)(Cn3cnc4c(cnn4-c4ccc(F)cc4)c3=O)CC2)n1 | inactive |
| O=Cc1cccc(N2CCC(O)(Cn3cnc4c(cnn4-c4ccc(F)cc4)c3=O)CC2)n1 | inactive |
| O=c1c2cnn(-c3ccc(F)cc3)c2ncn1CC1(O)CCN(c2ccccn2)CC1 | inactive |
| O=c1c2cnn(-c3ccc(F)cc3)c2ncn1CC1(O)CCN(c2ncccc2Br)CC1 | 32% |
| O=c1c2cnn(-c3ccc(F)cc3)c2ncn1CC1(O)CCN(c2cccc(C(F)(F)F)n2)CC1 | inactive |
| O=c1c2cnn(-c3ccc(F)cc3)c2ncn1CC1(O)CCN(c2nccs2)CC1 | inactive |
| O=c1c2cnn(-c3ccc(F)cc3)c2ncn1CC1(O)CCN(c2ccc3ccccc3n2)CC1 | inactive |
| N#Cc1cccnc1N1CCC(O)(Cn2cnc3c(cnn3-c3ccc(F)cc3)c2=O)CC1 | inactive |
| O=c1c2cnn(-c3ccc(F)cc3)c2ncn1CC1(O)CCN(c2ncccc2Cl)CC1 | 32% |
| O=Cc1cccnc1N1CCC(O)(Cn2cnc3c(cnn3-c3ccc(F)cc3)c2=O)CC1 | inactive |
| O=c1c2cnn(-c3ccc(F)cc3)c2ncn1CC1(O)CCN(c2ncccc2I)CC1 | 32% |
| O=c1c2cnn(-c3ccc(F)cc3)c2ncn1CC1(O)CCN(c2ncccc2F)CC1 | inactive |
